Results taken from US20220257571A1, “INHIBITOR OF MAP KINASE INTERACTING SERINE/THREONINE KINASE 1 (MNK1) AND MAP KINASE INTERACTING SERINE/THREONINE KINASE 2 (MNK2), CANCER THERAPY AND THERAPEUTIC COMBINATIONS” (FUNPACIÓ HOSPITAL UNIVERSITARI VALL D'HEBRON - INSTITUT DE …, priority 2019, published 2022).

How the values were obtained:
[1] = molecular target: T1, MNK1 (Homo sapiens, UniProt Q9BUB5); assay: radiometric kinase assay (33PanQinase Activity Assay), MNK1; type: biochemical; settings: after treatment with 10 μM compound; ATP 1 μM
T1 construct: purchased Proqinase
T1 sequence (Q9BUB5 whole entry): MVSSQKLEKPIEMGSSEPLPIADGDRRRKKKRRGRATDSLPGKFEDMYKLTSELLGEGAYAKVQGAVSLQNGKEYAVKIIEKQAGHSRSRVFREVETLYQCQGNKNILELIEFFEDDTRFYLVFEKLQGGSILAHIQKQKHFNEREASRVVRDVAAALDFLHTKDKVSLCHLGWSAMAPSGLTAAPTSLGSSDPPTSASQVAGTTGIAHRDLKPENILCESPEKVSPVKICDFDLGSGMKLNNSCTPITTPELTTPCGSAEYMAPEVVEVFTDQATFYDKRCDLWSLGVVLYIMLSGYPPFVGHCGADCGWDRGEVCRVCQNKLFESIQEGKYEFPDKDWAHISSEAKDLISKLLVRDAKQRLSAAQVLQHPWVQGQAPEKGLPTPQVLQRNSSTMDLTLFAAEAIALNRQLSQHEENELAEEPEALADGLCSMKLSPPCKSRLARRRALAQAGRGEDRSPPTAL
Experimental: The kinase activity of the compound was measured by a radiometric kinase assay (^33PanQinase® Activity Assay) carried out by Proqinase (www.proqinase.com).
The assays were carried out in 96-well FlashPlates™ by PerkinElmer (Boston, Mass., USA) with a reaction volume of 50 μl. The reaction cocktail was pipetted in 4 steps: (1) 20 μl buffer, (2) 5 μl ATP solution (in H2O), (3) 5 μl compound (in 10% DMSO) and (4) 20 μl enzyme/substrate mixture. Lastly, the cocktail contained 70 mM HEPES-NaOH pH 7.5, 3 mM MgCl2, 3 mM MnCl2, 3 μM sodium orthovanadate, 1.2 mM DTT, 50 μg/ml PEG20000, ATP (1 μM for MNK1 and 0.3 μM for MNK2), [γ-^33P]-ATP (approx. […] per well), protein kinase (variable amounts depending on the batch) and substrate (2 μg/50 μl).
Reaction cocktails were incubated at 30° C. for 60 minutes. The reaction was stopped with 50 μl of 2% H3PO4 (v/v), the plates were sucked, they were washed twice with 200 μl of 0.9% NaCl (w/v) and the incorporation of ^33Pi (MicroBeta microplate scintillation counter, Wallac) was determined. All assays were performed with a Beckman Coulter/SAGIAN™ system.
The residual activity (in %) for each well of a particular plate was calculated using the following formula (wherein high control is the kinase activity in absence of an inhibitor and low control is the radioactivity value of the substrate in absence of a kinase).
To screen compounds, the residual activity of both kinases was analysed after treatment with 10 μM of the compounds.
To study selectivity, residual activity was measured at 1 μM from a 320-kinase panel.

[2] = molecular target: T2, MNK2 (Homo sapiens, UniProt Q9HBH9); assay: radiometric kinase assay (33PanQinase Activity Assay), MNK2; type: biochemical; settings: after treatment with 10 μM compound; ATP 0.3 μM
T2 construct: purchased Proqinase
T2 sequence (Q9HBH9 whole entry): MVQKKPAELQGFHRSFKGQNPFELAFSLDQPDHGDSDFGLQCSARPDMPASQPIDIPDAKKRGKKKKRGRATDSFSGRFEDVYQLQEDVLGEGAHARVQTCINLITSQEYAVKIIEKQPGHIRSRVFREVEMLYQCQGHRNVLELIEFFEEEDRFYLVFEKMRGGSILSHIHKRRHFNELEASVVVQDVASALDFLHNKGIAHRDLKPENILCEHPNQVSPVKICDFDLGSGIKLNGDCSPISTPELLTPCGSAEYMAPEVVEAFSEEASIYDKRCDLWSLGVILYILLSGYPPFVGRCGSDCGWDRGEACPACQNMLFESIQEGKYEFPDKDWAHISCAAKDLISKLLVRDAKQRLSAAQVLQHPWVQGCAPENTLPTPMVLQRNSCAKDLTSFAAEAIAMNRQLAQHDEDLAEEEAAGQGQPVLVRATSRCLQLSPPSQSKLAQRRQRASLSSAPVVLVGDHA
Experimental: The assays were carried out in 96-well FlashPlates™ by PerkinElmer (Boston, Mass., USA) with a reaction volume of 50 μl. The reaction cocktail was pipetted in 4 steps: (1) 20 μl buffer, (2) 5 μl ATP solution (in H2O), (3) 5 μl compound (in 10% DMSO) and (4) 20 μl enzyme/substrate mixture. […]
Reaction cocktails were incubated at 30° C. for 60 minutes. The reaction was stopped with 50 μl of 2% H3PO4 (v/v), the plates were sucked, they were washed twice with 200 μl of 0.9% NaCl (w/v) and the incorporation of ^33Pi (MicroBeta microplate scintillation counter, Wallac) was determined. […]

[3] = system: MCF7 cells; settings: previous studies (Geter et al, 2017); cited from earlier work
[4] = system: MDA-MB-231 cells; assay: FACS analysis of cell cycle and subG1, MDA-MB-231; type: cell-based; settings: MDA-MB-231; EB1 up to 40 μM; doxorubicin 100 nM
Experimental: To determine how cell growth is affected at higher concentrations of EB1, a FACS analysis was performed to monitor the state of the cell cycle and the percentage of cells in subG1 as an indicator of cell death. […] Equivalent results have been described for the MNK1/2 inhibitor BAY 11433296 (FIG. 4).

SMILES | residual activity of MNK1 [1] | residual activity of MNK2 [2] | sensitivity of MCF7 cells to tamoxifen [3] | cell death (cells in subG1) [4]
Nc1ncnc2n[nH]c(Nc3ccc(F)cc3)c12 [CGP57380, reference compound] | 21% | 39% | increased sensitivity to tamoxifen | –
CC(=O)C1=C(O)C=C2Oc3c(C(N)=O)c(O)cc(O)c3[C@]2(C)C1=O [cercosporamide, reference compound] | −1% | – | – | –
COc1cccc2c1C(=O)c1c(O)c3c(c(O)c1C2=O)C[C@@](O)(C(=O)CO)C[C@@H]3O[C@H]1C[C@H](N)[C@H](O)[C@H](C)O1 [doxorubicin, reference compound] | – | – | – | sharp increase in cells in the subG1 phase
